# Test results published in ChEMBL document CHEMBL4311969, “Polygala tenuifolia-Acori tatarinowii herbal pair as an inspiration for substituted cinnamic α-asaronol esters: Design, synthesis, anticonvulsant activity, and inhibition of lactate dehydrogenase study” (Eur J Med Chem, 2019).
# “And” between values parts separate entries of the source, which are not always exact repeats. Equal entries are not always repeated. The source made the active and inactive calls. No cut-off for these calls is given here.
# Key:
# [1] = species: Homo sapiens; experiment: Inhibition of human LDH1 assessed as remaining activity at 0.5 mM using sodium pyruvate as substrate by UV-VIS spectrophotometry method relative to control
# [2] = species: Homo sapiens; experiment: Inhibition of human LDH5 assessed as remaining activity at 0.5 mM using sodium pyruvate as substrate by UV-VIS spectrophotometry method relative to control
# [3] = test system: Mus musculus; experiment: Anticonvulsant activity in Kunming mouse assessed as reduction in Sc3-MP-induced tonic seizure rate at 300 mg/kg, ip administered 0.5 hrs before Sc3-MP stimulation relative to control; assay type: functional; design: scale not given: the % may be the effect or the level left
# [4] = test system: Mus musculus; experiment: Anticonvulsant activity in Kunming mouse assessed as reduction in ScPTZ-induced clonic seizure at 300 mg/kg, ip administered 0.5 hrs before ScPTZ stimulation relative to control; assay type: functional; design: scale not given: the % may be the effect or the level left
# [5] = test system: Mus musculus; experiment: Anticonvulsant activity in Kunming mouse assessed as reduction in ScPTZ-induced tonic seizure rate at 300 mg/kg, ip administered 0.5 hrs before ScPTZ stimulation relative to control; assay type: functional; design: scale not given: the % may be the effect or the level left
# [6] = test system: Mus musculus; experiment: Anticonvulsant activity in Kunming mouse assessed as MES-induced hind limb extension at 50 mg/kg, ip administered 0.5 to 4 hrs before MES stimulation relative to control; assay type: functional
# [7] = test system: Mus musculus; experiment: Anticonvulsant activity in Kunming mouse assessed as reduction in ScPTZ-induced seizure at 300 mg/kg, ip administered 0.25 to 2 hrs before ScPTZ stimulation relative to control; assay type: functional; design: scale not given: the % may be the effect or the level left
# [8] = test system: Mus musculus; experiment: Anticonvulsant activity in ip dosed Kunming mouse assessed as reduction in ScPTZ-induced seizure administered 0.5 hrs before ScPTZ stimulation; assay type: functional
# [9] = (§1) Protective index, ratio of TD50 for neurotoxicity against ip dosed Kunming mouse assessed as time remained in rod measured at 0.5 hrs by rotarod test to ED50 for anticonvulsant activity in ip dosed Kunming mouse assessed as reduction in Sc3-MP-induced seizure administered 0.5 hrs before Sc3-MP stimulation; assay type: toxicity, organism-based; conditions: in vivo, read-out: PI
# [10] = as §1, with “ScPTZ-induced” for “Sc3-MP-induced”, “ScPTZ” for “Sc3-MP”; assay type: toxicity, organism-based; conditions: in vivo, read-out: PI
# [11] = test system: Mus musculus; experiment: […] activity in ip dosed Kunming mouse assessed as reduction in formalin-induced paw licking administered 0.5 hrs before formalin stimulation; assay type: functional
# [12] = test system: Mus musculus; experiment: Anticonvulsant activity in Kunming mouse assessed as MES-induced hind limb extension at 100 mg/kg, ip administered 0. 5 to 4 hrs before MES stimulation relative to control; assay type: functional
# [13] = species: Homo sapiens; experiment: Inhibition of human LDH1 at 0.5 mM using sodium pyruvate as substrate by UV-VIS spectrophotometry method relative to control
# [14] = as §1, with “formalin-induced paw licking” for “Sc3-MP-induced seizure”, “formalin” for “Sc3-MP”; assay type: toxicity, organism-based; conditions: in vivo, read-out: PI
# [15] = test system: Mus musculus; experiment: Anticonvulsant activity in ip dosed Kunming mouse assessed as MES-induced hind limb extension administered 0.5 hrs before MES stimulation; assay type: functional
# [16] = species: Homo sapiens; experiment: Inhibition of human LDH5 at 0.5 mM using sodium pyruvate as substrate by UV-VIS spectrophotometry method relative to control
# [17] = test system: Mus musculus; experiment: Anticonvulsant activity in Kunming mouse assessed as reduction in Sc3-MP-induced mortality rate at 300 mg/kg, ip administered 0.5 hrs before Sc3-MP stimulation relative to control; assay type: functional; design: scale not given: the % may be the effect or the level left
# [18] = Protective index, ratio of TD50 for neurotoxicity against ip dosed Kunming mouse assessed as time remained in rod measured at 0.5 hrs by rotarod test to ED50 for anticonvulsant activity in ip dosed Kunming mouse assessed as MES-induced hind limb extension administered 0.5 hrs; assay type: toxicity, organism-based; conditions: in vivo, read-out: PI
# [19] = test system: Mus musculus; experiment: Anticonvulsant activity in Kunming mouse assessed as MES-induced hind limb extension at 50 mg/kg, ip administered 0.5 and 2 hrs before MES stimulation relative to control; assay type: functional
# [20] = test system: Mus musculus; experiment: Anticonvulsant activity in Kunming mouse assessed as reduction in Sc3-MP-induced seizure ip dosed measured at 0.5 hrs before Sc3-MP stimulation; assay type: functional
# [21] = test system: Mus musculus; experiment: Anticonvulsant activity in Kunming mouse assessed as reduction in ScPTZ-induced seizure at 100 mg/kg, ip administered 0.25 to 2 hrs before ScPTZ stimulation relative to control; assay type: functional
# [22] = test system: Mus musculus; experiment: Anticonvulsant activity in Kunming mouse assessed as reduction in Sc3-MP-induced clonic seizure rate at 300 mg/kg, ip administered 0.5 hrs before Sc3-MP stimulation relative to control; assay type: functional; design: scale not given: the % may be the effect or the level left
# [23] = test system: Mus musculus; experiment: Anticonvulsant activity in Kunming mouse assessed as MES-induced hind limb extension at 100 mg/kg, ip administered 0. 5 hrs before MES stimulation relative to control; assay type: functional
# [24] = Noncompetitive inhibition of human LDH5 at 0.5 mM using sodium pyruvate as substrate by UV-VIS spectrophotometry method based Lineweaver-Burk plot analysis
# [25] = test system: Mus musculus; experiment: Anticonvulsant activity in Kunming mouse assessed as reduction in ScPTZ-induced tonic seizure rate at 100 mg/kg, ip administered 0.5 hrs before ScPTZ stimulation relative to control; assay type: functional; design: scale not given: the % may be the effect or the level left
# [26] = test system: Mus musculus; experiment: Anticonvulsant activity in Kunming mouse assessed as reduction in ScPTZ-induced clonic seizure at 100 mg/kg, ip administered 0.5 hrs before ScPTZ stimulation relative to control; assay type: functional; design: scale not given: the % may be the effect or the level left
# [27] = test system: Mus musculus; experiment: Anticonvulsant activity in Kunming mouse assessed as MES-induced hind limb extension at 100 mg/kg, ip administered 0. 5 to 2 hrs before MES stimulation; assay type: functional, organism-based
# [28] = Noncompetitive inhibition of human LDH1 at 0.5 mM using sodium pyruvate as substrate by UV-VIS spectrophotometry method based Lineweaver-Burk plot analysis
# [29] = Neurotoxicity against Kunming mouse assessed as time remained in rod at 100 mg/kg, ip administered 0.5 to 2 hrs by rotarod test; assay type: toxicity, organism-based; conditions: in vivo
# [30] = Neurotoxicity against ip dosed Kunming mouse assessed as time remained in rod measured at 0.5 hrs by rotarod test; assay type: toxicity, organism-based; conditions: in vivo
structure (smiles),measurement,setting,value
CCCC(CCC)C(=O)O,Activity,[1],100%
same,Activity,[2],100%
COc1cc(OC)c(OC)cc1/C=C/COC(=O)/C=C/c1c(OC)ccc(OC)c1OC,Activity,[3],75%
same,Activity,[4],100%
same,Activity,[5],50%
same,Activity,[6],50%
same,Activity,[7],50%
same,ED50,[8],212 mg/kg and 476 µmol/kg
same,selectivity ratio at 0.5 h,[9],3.3
same,selectivity ratio at 0.5 h,[10],4.72
same,ED50,[11],180 to 225 µmol/kg
same,Activity,[12],25 - 100%
same,inhibition,[13],Active
same,selectivity ratio at 0.5 h,[14],12.5
same,ED50,[15],120 µmol/kg and 53.5 mg/kg
same,inhibition,[16],Active
same,Activity,[17],25%
same,selectivity ratio at 0.5 h,[18],> 18.7
same,Activity,[19],50%
same,ED50,[20],> 300 mg/kg and > 675 µmol/kg
same,Activity,[21],inactive
same,Activity,[22],100%
same,Activity,[23],100%
same,Ki,[24],3.52 µM
same,Activity,[25],100%
same,Activity,[26],100%
same,Activity,[27],Active
same,Ki,[28],12 µM
same,Activity,[29],Non-Toxic
same,TD50 at 0.5 h,[30],> 1000 mg/kg and > 2250 µmol/kg
NC(=O)N1c2ccccc2C=Cc2ccccc21 [CARBAMAZEPINE],ED50,[8],> 100 mg/kg and > 423 µmol/kg
same,ED50,[15],18.1 mg/kg and 76.5 µmol/kg
same,Activity,[1],100%
same,Activity,[2],100%
same,TD50 at 0.5 h,[30],303 µmol/kg
